In patent EP0696280B1, “SUBSTITUTED PYRROLIDIN-3-YL-ALKYL-PIPERIDINES USEFUL AS TACHYKININ ANTAGONISTS” (MERRELL PHARMACEUTICALS INC., priority 1993, dated 1994):
Counter-ions that a name gives are not always drawn.

System: capsaicin-induced respiratory effects
Test: Antagonism of capsaicin aerosol induced respiratory effects in conscious guinea pigs (whole body plethysmography)
Assay type: in vivo, guinea pig
Conditions: for DYSPNEA ONSET / MAXIMUM PRESSURE INCREASE (mmH2O) / SRE NUMBER*: mean and SEM; for SRE NUMBER*: number of coughs/gasps during 19 min exposure
Method: In vivo experiments were performed using male Duncan Hartley guinea pigs (250-350g). Changes in conscious breathing patterns were monitored in four animals simultaneously using modified whole body plethysmography consisting of four small plexiglass boxes each connected to a reference box via Validyne DP 45-16 differential pressure transducers. The 4 boxes were equipped with an air supply line (also used for aerosol delivery) and an exhaust air line. Supply and exhaust lines were of the same length and narrow bore and arose from a common supply chamber and vented to a common exhaust chamber. This system was used to ensure that fluctuations in supply air and atmospheric pressure would remain in phase and be eliminated from the net signal by the differential pressure transducers. The analog pressure signals were digitalized via a Data Translation DT2821 A to D board. Data were collected at a rate of 100 samples/second/animal. Each cycle of pressure change was analyzed using the following parameters: rising and falling slope determined between minimum and maximum pressures, the ratio of rising over falling slope, and the magnitude of the change between initial trough pressure and peak cycle pressure. Using these values (and observing the animals) the pressure cycles were characterized into normal breaths, forced exhalations (apparent by abdominal heaving), significant respiratory events (SREs; usually coughs, less often sneezes or gasps which were characterized by transient, extremely large pressure increases which were distinguishable from noise) and movement/noise with a PCAT 286 running a System V UNIX operating system. Dyspnea was defined as a significant, sustained increase in plethysmograph pressure which was associated with an observable shift to labored breathing in the animal.
During the course of a typical experiment in which airway responsiveness to various bronchoconstricting agents was examined, aerosols were delivered for 19 min (0.33 ml/min) using a DeVilbiss Ultraneb 99 ultrasonic nebulizer and animals monitored during this time. Prior to nebulization, 1 min of resting breathing was collected to establish a baseline pressure. […] The vehicle for nebulization of all bronchoconstrictive agents was phosphate buffered saline (pH 7.4) which elicited no respiratory effects itself. Putative tachykinin antagonists were administered either (i.v.) 20 min prior to onset of aerosol exposure or orally 1 hour prior to onset (to guinea pigs after an overnight fast).
Capsaicin aerosol is known to promote release of the tachykinins SP and NKA from sensory nerves in the airways of guinea pigs which may then act upon NK1 and NK2 receptors, respectively to elicit respiratory effects. […]
(§1) Values are mean and SEM of data derived from number of animals indicated in parenthesis. Putative tachykinin antagonists were administered intravenously 20 min prior to initiation of capsaicin aerosol (0.001%). *SRE number indicates the number of coughs/gasps which occurred during the 19 min capsaicin exposure period.
as §1, with “by oral gavage 1 hr” for “intravenously 20 min”

[1] = 10 mg/kg intravenously 20 min prior to capsaicin aerosol (0.001%)
[2] = 25 mg/kg by oral gavage 1 hr prior to capsaicin aerosol (0.001%)
[3] = 50 mg/kg by oral gavage 1 hr prior to capsaicin aerosol (0.001%)
[4] = 100 mg/kg by oral gavage 1 hr prior to capsaicin aerosol (0.001%)

`COc1cc(C(=O)N2CCC(CCN3CCC(C(N)=O)(c4ccccc4)CC3)(c3ccc(Cl)c(Cl)c3)C2)cc(OC)c1OC` (racemic) [Example 3A, 1-[2-[3-(3,4-dichloro-phenyl-3-yl)-1-(3,4,5-trimethoxy-benzoyl)-pyrrolidin-3-yl]-ethyl] -4-phenyl-piperidine-4-carboxylic acid amide hydrochloride] was tested, and the “DYSPNEA INCIDENCE” value [1] was 89% (7/8), the “DYSPNEA ONSET” value [1] was 480 ± 80 s and the “MAXIMUM PRESSURE INCREASE (mmH2O)” value [1] was 0.83 ± 0.18 mmH2O. The “SRE NUMBER*” value [1] was 8.50 ± 1.9, the “DYSPNEA INCIDENCE” value [2] was 80% (8/10) and the “DYSPNEA ONSET” value [2] was 424 ± 120 s. For the same compound, the “MAXIMUM PRESSURE INCREASE (mmH2O)” value [2] was 0.7 ± 0.2 mmH2O, the “SRE NUMBER*” value [2] was 4.6 ± 1.0 and the “DYSPNEA INCIDENCE” value [3] was 70% (7/10). For the same compound, the “DYSPNEA ONSET” value [3] was 434 ± 152 s, the “MAXIMUM PRESSURE INCREASE (mmH2O)” value [3] was 0.4 ± 0.1 mmH2O and the “SRE NUMBER*” value [3] was 2.8 ± 0.8. For the same compound, the “DYSPNEA INCIDENCE” value [4] was 50% (5/10), the “DYSPNEA ONSET” value [4] was 360 ± 120 s and the “MAXIMUM PRESSURE INCREASE (mmH2O)” value [4] was 0.4 ± 0.1 mmH2O. For the same compound, the “SRE NUMBER*” value [4] was 2.1 ± 0.5.
